The text below walks through data of article PMC7753147, “High-throughput determination of protein affinities using unmodified peptide libraries in nanomolar scale” (iScience, 2020).

For one test, the system named is native geph. The experiment in a line: µSPOT peptide microarray binding assay with native geph from mouse brain lysate.
A further test deals with gephE. The experiment in a line: µSPOT peptide microarray binding assay with recombinant gephE.
The test system of the next test is FL-geph. The experiment in a line: µSPOT peptide microarray binding assay with full-length geph.
The mark [1] stands for this setting: µSPOT peptide microarray, GlyRβ full positional scan, native geph from mouse brain lysate, intensity normalised to wild-type sequence DLRSNDFSIVGSLPR (=1).
The mark [2] stands for this setting: µSPOT peptide microarray, GlyRβ full positional scan, recombinant gephE, intensity normalised to wild-type sequence DLRSNDFSIVGSLPR (=1).
[3] abbreviates: µSPOT peptide microarray, GlyRβ full positional scan, intensity normalised to wild-type sequence DLRSNDFSIVGSLPR (=1).
The mark [4] stands for this setting: µSPOT full positional scan of GlyRβ 15-mer DLRSNDFSIVGSLPR, native geph, intensity normalised to wild-type sequence (= 1).
[5] abbreviates: µSPOT full positional scan of GlyRβ 15-mer DLRSNDFSIVGSLPR, intensity normalised to wild-type sequence (= 1).

As to “DLRSNDFSIEGSLPR [GlyRβ_Full_Positional_Scan_191, GlyR β 414-428 variant V423E]”, the “Native geph Binding Intensity [norm.]” value with native geph (setting [1]) is 0.53 norm. Also, in the test on gephE (setting [2]), the “gephE Binding Intensity [norm.]” value was found to be 0.58 norm. In the test on FL-geph (setting [3]), the “Fl-geph Binding Intensity [norm.]” value amounted to 0.69 norm.
“DSRSNDFSIVGSLPR [GlyRβ_Full_Positional_Scan_035]”: the “Native geph Binding Intensity [norm.]” value with native geph (setting [1]) is reported as 0.97 norm. The “gephE Binding Intensity [norm.]” value in the test on gephE (setting [2]) was 0.97 norm. Besides, the “Fl-geph Binding Intensity [norm.]” value in the test with FL-geph (setting [3]) was 0.97 norm.
Consider “DLRSNDFSIVGSAPR [GlyRβ_Full_Positional_Scan_241]”, for which, in the test on native geph (setting [4]), the “Native geph Binding Intensity [norm.]” value was 1 norm. Also, the “gephE Binding Intensity [norm.]” value in the test with gephE (setting [5]) amounted to 0.9 norm. For the same sequence, the “Fl-geph Binding Intensity [norm.]” value with FL-geph (setting [5]) is recorded as 1.07 norm.
“DLRSNDFSIVGSEPR [GlyRβ_Full_Positional_Scan_251]”: in the test with native geph (setting [4]), the “Native geph Binding Intensity [norm.]” value is reported as 0.67 norm. Further, the “gephE Binding Intensity [norm.]” value in the test with gephE (setting [5]) is 0.8 norm. The “Fl-geph Binding Intensity [norm.]” value in the test with FL-geph (setting [5]) was determined as 1.11 norm.
For the sequence “DLRSNDFSIFGSLPR [GlyRβ_Full_Positional_Scan_187, GlyR β 414-428 variant V423F]”, the “Native geph Binding Intensity [norm.]” value in the test with native geph (setting [1]) was determined as 0.43 norm. Besides, the “gephE Binding Intensity [norm.]” value in the test with gephE (setting [2]) turned out to be 0.64 norm. For the same sequence, the “Fl-geph Binding Intensity [norm.]” value in the test with FL-geph (setting [3]) stood at 0.7 norm.
“DLRSNDFSIVGSLTR [GlyRβ_Full_Positional_Scan_276]”: the “Native geph Binding Intensity [norm.]” value with native geph (setting [4]) is 0.49 norm. Further, in the test with gephE (setting [5]), the “gephE Binding Intensity [norm.]” value turned out to be 0.74 norm. For the same sequence, the “Fl-geph Binding Intensity [norm.]” value with FL-geph (setting [5]) is recorded as 0.96 norm.
Consider “DLRSNDFSPVGSLPR [GlyRβ_Full_Positional_Scan_165, GlyR β 414-428 variant I422P]”, for which the “Native geph Binding Intensity [norm.]” value in the test with native geph (setting [1]) is given as 0.48 norm. In the test on gephE (setting [2]), the “gephE Binding Intensity [norm.]” value is 0.64 norm. For the same sequence, the “Fl-geph Binding Intensity [norm.]” value in the test with FL-geph (setting [3]) was determined as 0.97 norm.
For “DLRSNDFMIVGSLPR [GlyRβ_Full_Positional_Scan_158, GlyR β 414-428 variant S421M]” the same measures were 0.54 norm, 0.73 norm and 0.88 norm.
With “KLRSNDFSIVGSLPR [GlyRβ_Full_Positional_Scan_014]”, the “Native geph Binding Intensity [norm.]” value in the test on native geph (setting [1]) is given as 0.32 norm. Besides, the “gephE Binding Intensity [norm.]” value in the test on gephE (setting [2]) is 1.03 norm. In addition, the “Fl-geph Binding Intensity [norm.]” value with FL-geph (setting [3]) is 0.94 norm.
Regarding “DRRSNDFSIVGSLPR [GlyRβ_Full_Positional_Scan_032]”, the “Native geph Binding Intensity [norm.]” value in the test on native geph (setting [1]) was found to be 0.66 norm. In addition, the “gephE Binding Intensity [norm.]” value with gephE (setting [2]) is recorded as 0.9 norm. For the same sequence, in the test on FL-geph (setting [3]), the “Fl-geph Binding Intensity [norm.]” value turned out to be 0.96 norm.
For “DMRSNDFSIVGSLPR [GlyRβ_Full_Positional_Scan_038]”, the “Native geph Binding Intensity [norm.]” value in the test with native geph (setting [1]) was determined as 1.09 norm. Also, the “gephE Binding Intensity [norm.]” value in the test with gephE (setting [2]) is given as 0.97 norm. In addition, the “Fl-geph Binding Intensity [norm.]” value in the test with FL-geph (setting [3]) was found to be 0.97 norm.
Consider “DLRSNDFSIVGHLPR [GlyRβ_Full_Positional_Scan_233]”, for which the “Native geph Binding Intensity [norm.]” value in the test on native geph (setting [4]) is listed as 0.9 norm. The “gephE Binding Intensity [norm.]” value in the test with gephE (setting [5]) was 0.8 norm. In the test on FL-geph (setting [5]), the “Fl-geph Binding Intensity [norm.]” value came out at 1.01 norm.
For “DLQSNDFSIVGSLPR [GlyRβ_Full_Positional_Scan_060]”, in the test on native geph (setting [1]), the “Native geph Binding Intensity [norm.]” value amounted to 1.3 norm. In addition, the “gephE Binding Intensity [norm.]” value in the test with gephE (setting [2]) is reported as 0.91 norm. In addition, the “Fl-geph Binding Intensity [norm.]” value in the test with FL-geph (setting [3]) turned out to be 1.06 norm.
For the sequence “DLRSNDVSIVGSLPR [GlyRβ_Full_Positional_Scan_126, GlyR β 414-428 variant F420V]”, the “Native geph Binding Intensity [norm.]” value with native geph (setting [1]) was 0.38 norm. Moreover, the “gephE Binding Intensity [norm.]” value in the test with gephE (setting [2]) came out at 0.52 norm. The “Fl-geph Binding Intensity [norm.]” value with FL-geph (setting [3]) came out at 0.76 norm.
Consider “DLRSNDFSIVGKLPR [GlyRβ_Full_Positional_Scan_234]”, for which, in the test on native geph (setting [4]), the “Native geph Binding Intensity [norm.]” value came to 0.47 norm. In the test on gephE (setting [5]), the “gephE Binding Intensity [norm.]” value came out at 0.81 norm. Besides, in the test on FL-geph (setting [5]), the “Fl-geph Binding Intensity [norm.]” value stood at 0.96 norm.
For “DLRSNDFSICGSLPR [GlyRβ_Full_Positional_Scan_197, GlyR β 414-428 variant V423C]”, the “Native geph Binding Intensity [norm.]” value in the test on native geph (setting [1]) amounted to 0.36 norm. Further, the “gephE Binding Intensity [norm.]” value in the test on gephE (setting [2]) is 0.45 norm. Besides, the “Fl-geph Binding Intensity [norm.]” value with FL-geph (setting [3]) is 0.67 norm.
Consider “DLRSNDFSIVRSLPR [GlyRβ_Full_Positional_Scan_212, GlyR β 414-428 variant G424R]”, for which the “Native geph Binding Intensity [norm.]” value with native geph (setting [4]) was 0.17 norm. For the same sequence, the “gephE Binding Intensity [norm.]” value in the test on gephE (setting [5]) was 0.57 norm. The “Fl-geph Binding Intensity [norm.]” value with FL-geph (setting [5]) was 0.6 norm.
Regarding “DLRSGDFSIVGSLPR [GlyRβ_Full_Positional_Scan_082]”, the “Native geph Binding Intensity [norm.]” value in the test on native geph (setting [1]) was found to be 0.77 norm. Besides, the “gephE Binding Intensity [norm.]” value in the test on gephE (setting [2]) amounted to 0.9 norm. The “Fl-geph Binding Intensity [norm.]” value in the test on FL-geph (setting [3]) was determined as 0.9 norm.
For “DLRSNDFSIVGSLVR [GlyRβ_Full_Positional_Scan_266]”, the “Native geph Binding Intensity [norm.]” value in the test with native geph (setting [4]) was 0.45 norm. In addition, the “gephE Binding Intensity [norm.]” value with gephE (setting [5]) is recorded as 0.62 norm. Further, the “Fl-geph Binding Intensity [norm.]” value with FL-geph (setting [5]) came to 0.91 norm.
Consider “DLRSNDFNIVGSLPR [GlyRβ_Full_Positional_Scan_159, GlyR β 414-428 variant S421N]”, for which the “Native geph Binding Intensity [norm.]” value in the test with native geph (setting [1]) was determined as 0.64 norm. Also, in the test on gephE (setting [2]), the “gephE Binding Intensity [norm.]” value is given as 0.72 norm. Besides, the “Fl-geph Binding Intensity [norm.]” value in the test with FL-geph (setting [3]) is recorded as 1.03 norm.
For “DLRLNDFSIVGSLPR [GlyRβ_Full_Positional_Scan_064]” the same measures were 0.88 norm, 0.9 norm and 0.89 norm.
As for “DLRSNDFSIGGSLPR [GlyRβ_Full_Positional_Scan_182, GlyR β 414-428 variant V423G]”, the “Native geph Binding Intensity [norm.]” value in the test on native geph (setting [1]) is recorded as 0.27 norm. The “gephE Binding Intensity [norm.]” value in the test with gephE (setting [2]) is listed as 0.48 norm. In addition, the “Fl-geph Binding Intensity [norm.]” value with FL-geph (setting [3]) is 0.56 norm.
Turning to “DLWSNDFSIVGSLPR [GlyRβ_Full_Positional_Scan_048]”, the “Native geph Binding Intensity [norm.]” value with native geph (setting [1]) is reported as 1.17 norm. Besides, in the test on gephE (setting [2]), the “gephE Binding Intensity [norm.]” value is reported as 0.86 norm. Also, the “Fl-geph Binding Intensity [norm.]” value with FL-geph (setting [3]) amounted to 1.13 norm.
In the case of “DLRSNDFSIVGSYPR [GlyRβ_Full_Positional_Scan_249]”, in the test on native geph (setting [4]), the “Native geph Binding Intensity [norm.]” value was found to be 1.23 norm. The “gephE Binding Intensity [norm.]” value in the test with gephE (setting [5]) was 0.99 norm. Further, the “Fl-geph Binding Intensity [norm.]” value in the test with FL-geph (setting [5]) came out at 0.87 norm.
For “DLRSSDFSIVGSLPR [GlyRβ_Full_Positional_Scan_095]”, the “Native geph Binding Intensity [norm.]” value with native geph (setting [1]) worked out at 0.85 norm. Moreover, in the test on gephE (setting [2]), the “gephE Binding Intensity [norm.]” value turned out to be 0.99 norm. For the same sequence, in the test with FL-geph (setting [3]), the “Fl-geph Binding Intensity [norm.]” value is listed as 0.95 norm.
For “DLRSNDFHIVGSLPR [GlyRβ_Full_Positional_Scan_153, GlyR β 414-428 variant S421H]”, the “Native geph Binding Intensity [norm.]” value with native geph (setting [1]) came to 0.48 norm. For the same sequence, the “gephE Binding Intensity [norm.]” value in the test on gephE (setting [2]) is on record as 0.8 norm. Also, in the test on FL-geph (setting [3]), the “Fl-geph Binding Intensity [norm.]” value is recorded as 0.95 norm.
As for “DLRSNDFSIVGSLSR [GlyRβ_Full_Positional_Scan_275]”, the “Native geph Binding Intensity [norm.]” value in the test on native geph (setting [4]) came to 0.5 norm. For the same sequence, the “gephE Binding Intensity [norm.]” value in the test with gephE (setting [5]) is 0.72 norm. Besides, the “Fl-geph Binding Intensity [norm.]” value with FL-geph (setting [5]) was 0.92 norm.
As to “DLRSNDFSIVGSLPA [GlyRβ_Full_Positional_Scan_281]”, the “Native geph Binding Intensity [norm.]” value with native geph (setting [4]) was found to be 0.81 norm. For the same sequence, the “gephE Binding Intensity [norm.]” value in the test on gephE (setting [5]) was 0.87 norm. For the same sequence, the “Fl-geph Binding Intensity [norm.]” value in the test on FL-geph (setting [5]) was determined as 0.9 norm.
